The values below come from ChEMBL document CHEMBL1201862, “PubChem BioAssay data set” (2004).

Test systems include HOP-62; MCF7; UO-31; U-251; SF-539; UACC-257; IGROV-1; K562; CAKI-1; 786-0; SR; RXF 393; CCRF-CEM; HL-60; COLO 205; MDA-MB-435; EKVX; HOP-92; OVCAR-5; HCC 2998.
Holding throughout (assay): growth of human tumour cells (NCI), 48 h

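How tested: cells in 96-well plates exposed to compound for 48 hours at five concentrations. GI50 = concentration required for 50% inhibition of growth.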 Activity calls are given as the source filed them. Cut-off read from the data, not from the text of the source: active = GI50 up to about 1.1 µM and inactive = higher. A value given as a limit tells only on which side of the number the result lay.

With `NC1=NCC(CN2CCCCC2)O1` (stereo unspecified), the GI50 with HOP-62, in the experiment with MCF7, in the experiment on UO-31, with U-251, with SF-539 and with UACC-257 was > 100 µM (inactive) throughout. Also, the GI50 in the experiment on IGROV-1, in the experiment with K562, in the experiment with CAKI-1, in the experiment with 786-0, with SR and in the experiment with RXF 393 was > 100 µM (inactive) each time. In addition, the GI50 in the experiment on CCRF-CEM, in the experiment with HL-60, in the experiment on COLO 205, with MDA-MB-435 and with EKVX was > 100 µM (inactive) in each case.

For the molecule `COC(=O)C[C@H](COCc1ccccc1)NC(=O)C[C@H](COCc1ccccc1)NC(=O)C[C@H](COCc1ccccc1)NC(=O)OC(C)(C)C`, the GI50 in the experiment on HOP-62 is 16.9 µM (inactive); with MCF7 it was 11.8 µM (inactive); in the experiment on UO-31, > 100 µM (inactive); in the experiment on U-251 it was 94 µM (inactive); with SF-539, 95.3 µM (inactive); with HOP-92 it was 24.8 µM (inactive). The GI50 with IGROV-1 is > 100 µM (inactive); in the experiment on K562 it was > 100 µM (inactive); in the experiment on CAKI-1, > 100 µM (inactive); in the experiment with 786-0, 18 µM (inactive); with OVCAR-5, > 100 µM (inactive); in the experiment with SR, 35.3 µM (inactive). For the same molecule, the GI50 with RXF 393 is 20.9 µM (inactive); in the experiment on CCRF-CEM, > 100 µM (inactive); in the experiment with HL-60 it was > 100 µM (inactive); in the experiment with COLO 205 it was > 100 µM (inactive); in the experiment with MDA-MB-435 it was 32.8 µM (inactive); with EKVX it was 25.8 µM (inactive).

As to `CC(=O)OC1CC[C@@]2(C)C(=CC[C@@H]3[C@@H]2CC[C@]2(C)C(OC(C)=O)[C@H](n4ccnc4)C[C@@H]32)C1` (stereo partly specified), the GI50 with MCF7 is 16.4 µM (inactive); in the experiment with UO-31, 36.6 µM (inactive); in the experiment on U-251, 37.8 µM (inactive); with SF-539 it was 15.3 µM (inactive); with UACC-257 it was 17.3 µM (inactive); in the experiment on HOP-92, 97.5 µM (inactive). For the same molecule, the GI50 in the experiment on IGROV-1 is 34.4 µM (inactive); with K562 it was 24.6 µM (inactive); in the experiment on CAKI-1 it was 49.1 µM (inactive); with 786-0, 30.4 µM (inactive); with OVCAR-5 it was 74.1 µM (inactive); in the experiment on SR, 16.1 µM (inactive). Besides, the GI50 is 30.2 µM (inactive) in the experiment on RXF 393; 11.7 µM (inactive) in the experiment on CCRF-CEM; 8.91 µM (inactive) with HL-60; 18.5 µM (inactive) in the experiment on COLO 205; 16.9 µM (inactive) with MDA-MB-435; 37.7 µM (inactive) in the experiment on EKVX.

On to `O=C(NNC(=O)c1ccncc1)c1ccncc1`, for which the GI50 with HOP-62, with MCF7, with UO-31, in the experiment with U-251, in the experiment on UACC-257 and with HOP-92 was > 100 µM (inactive) each time. The GI50 in the experiment with IGROV-1, in the experiment with K562, in the experiment on CAKI-1, with 786-0, in the experiment with OVCAR-5 and in the experiment on SR was > 100 µM (inactive) in each case. Further, the GI50 in the experiment with RXF 393, with CCRF-CEM, in the experiment with HL-60, in the experiment with COLO 205, with MDA-MB-435 and in the experiment with EKVX was > 100 µM (inactive) in each case.

For the molecule `C/C(=N\Nc1nc2ccccc2[nH]1)c1ccc2ccccc2n1`, the GI50 was 2.78 µM (inactive) in the experiment with HOP-62; 2.17 µM (inactive) with MCF7; 1.06 µM (active) in the experiment with UO-31; 1.81 µM (inactive) in the experiment with U-251; 3.27 µM (inactive) with SF-539; 3.55 µM (inactive) in the experiment on UACC-257. Also, the GI50 with IGROV-1 was 0.129 µM (active); in the experiment on K562 it was 2.39 µM (inactive); in the experiment on CAKI-1, 0.339 µM (active); in the experiment with 786-0, 1.9 µM (inactive); with OVCAR-5 it was 2.25 µM (inactive); in the experiment on SR, 0.08 µM (active). Also, the GI50 in the experiment on RXF 393 is 2.73 µM (inactive); in the experiment with CCRF-CEM it was 1.05 µM (active); with HL-60, 1.8 µM (inactive); in the experiment with COLO 205, 3.15 µM (inactive); in the experiment on MDA-MB-435, 4.29 µM (inactive); with EKVX, 0.678 µM (active).

With `CO/C(=C/C(=O)C(Cl)(Cl)Cl)CC/C(=C\C(=O)C(Cl)(Cl)Cl)OC`, the GI50 in the experiment on HOP-62 is 20.8 µM (inactive); in the experiment on MCF7, 24.2 µM (inactive); in the experiment on UO-31, 20.5 µM (inactive); with U-251, 22.8 µM (inactive); with SF-539, 23.6 µM (inactive); with UACC-257, 19.2 µM (inactive). In addition, the GI50 is 18.4 µM (inactive) in the experiment on HOP-92; 16.3 µM (inactive) with IGROV-1; 25.8 µM (inactive) with K562; 24.9 µM (inactive) in the experiment with CAKI-1; 22.3 µM (inactive) with 786-0; 27.8 µM (inactive) with OVCAR-5. Besides, the GI50 with SR was 18.6 µM (inactive); with RXF 393 it was 17.5 µM (inactive); in the experiment on CCRF-CEM it was 24.3 µM (inactive); in the experiment with HL-60, 26.4 µM (inactive); in the experiment on COLO 205, 40.7 µM (inactive); with MDA-MB-435, 19.8 µM (inactive). Besides, the GI50 with EKVX is 20.4 µM (inactive).

As to `O=C(/C=C/c1ccc(-c2ccccc2)cc1)NCc1ccc(C(=O)NCCc2c[nH]c3ccccc23)cc1`, the GI50 was 9.14 µM (inactive) in the experiment with HOP-62; 89.9 µM (inactive) in the experiment on MCF7; 26.7 µM (inactive) in the experiment with UO-31; 11.9 µM (inactive) in the experiment with U-251; 43.5 µM (inactive) with SF-539; 67.3 µM (inactive) in the experiment on UACC-257. Moreover, the GI50 in the experiment on HOP-92 was 20.1 µM (inactive); in the experiment on IGROV-1, 11.4 µM (inactive); in the experiment with K562 it was 21.5 µM (inactive); in the experiment on CAKI-1, 16.3 µM (inactive); in the experiment with 786-0, 11.1 µM (inactive); with OVCAR-5, 11.5 µM (inactive). Besides, the GI50 with SR is 21 µM (inactive); in the experiment on HCC 2998, 83.4 µM (inactive); in the experiment on RXF 393 it was 19.8 µM (inactive); in the experiment on CCRF-CEM, 13.9 µM (inactive); in the experiment on COLO 205, > 100 µM (inactive); with MDA-MB-435, > 100 µM (inactive). Besides, the GI50 in the experiment on EKVX is 34.2 µM (inactive).

In the case of `CC(=O)NNc1nc(C)c(C(/C=C/c2ccc([N+](=O)[O-])cc2)=N/NC(N)=O)s1`, the GI50 with HOP-62, with MCF7, in the experiment with UO-31, in the experiment with U-251, in the experiment on SF-539 and in the experiment on UACC-257 was > 100 µM (inactive) each time. The GI50 with HOP-92 is > 100 µM (inactive); in the experiment on IGROV-1, 44.8 µM (inactive); in the experiment on K562, > 100 µM (inactive); with CAKI-1, > 100 µM (inactive); in the experiment with 786-0, > 100 µM (inactive); in the experiment on OVCAR-5 it was > 100 µM (inactive). The GI50 with SR, in the experiment on HCC 2998, with RXF 393, in the experiment with CCRF-CEM, with COLO 205 and in the experiment with MDA-MB-435 was > 100 µM (inactive) throughout. The GI50 in the experiment on EKVX is 44.8 µM (inactive).
